In PMC11087268, “A folate inhibitor exploits metabolic differences in Pseudomonas aeruginosa for narrow-spectrum targeting” (Nature Microbiology, 2024):
Converted amounts (≈) assume the structure as drawn.

Columns and labels:
[1] = tested on: P. aeruginosa PA14 nfxB mutants; assay: MIC against fluorofolin-resistant PA14 nfxB mutants in liquid culture; type: cell-based; conditions: Pseudomonas aeruginosa
Procedure: (§1) Overnight cultures were diluted 1:150 in LB broth and added to a 96-well plate. Antibiotics were serially diluted 1:2 and added to columns of the 96-well plate and grown at 37 °C with continuous shaking. Cell growth was measured using optical density at 600 nm (OD600). MIC assays were performed in either BioTek Synergy HT or Tecan InfiniteM200 Pro microplate readers.
Resistant mutants were maintained as a frozen stock.

[2] = tested on: Pseudomonas aeruginosa PA14; assay: MIC against P. aeruginosa PA14 in LB broth; type: cell-based
Procedure: as §1

[3] = tested on: P. aeruginosa PA14 oprM transposon mutant; assay: microbe, parasite or virus in culture; type: cell-based; conditions: Pseudomonas aeruginosa
Procedure: as §1
(§2) P. aeruginosa PA14 transposon mutants were generated by the Ausubel Lab (https://pa14.mgh.harvard.edu/cgi-bin/pa14/home.cgi)[67]. The MICs of fluorofolin and TMP against strains with disrupted MexA, MexB and OprM were determined as above and compared to the parental strain. As transposon mutants in MexB were represented twice in this collection, the MIC was confirmed across both mutant strains.

[4] = tested on: P. aeruginosa PA14 mexA transposon mutant; assay: microbe, parasite or virus in culture; type: cell-based; conditions: Pseudomonas aeruginosa
Procedure: as §1, §2

[5] = tested on: P. aeruginosa PA14 mexB transposon mutant; assay: microbe, parasite or virus in culture; type: cell-based; conditions: Pseudomonas aeruginosa
Procedure: as §1, §2

[6] = tested on: Staphylococcus aureus NRS384; assay: MIC (WuXi, Mueller–Hinton broth) against S. aureus NRS384; type: cell-based
Procedure: Bacterial colonies (4–8) of strains of interest were vortexed in saline and adjusted to an OD600 of 0.2. Strains were diluted 1:200 into CAMHB media in 96-well plates. Antibiotics were serially diluted 1:3 in DMSO, and 1 μl of each dilution was added to bacteria. The plates were incubated for 18–20 h at 37 °C before observation.

[7] = tested on: Pseudomonas aeruginosa PA01; assay: MIC against P. aeruginosa PA01 in LB broth; type: cell-based; conditions: 16 h, 37 °C, OD600
Procedure: as §1

E. coli lptD4213 = assay: Growth of E. coli lptd4213 with fluorofolin (with or without SMX) and thymidine or TMI; type: cell-based, Escherichia coli; conditions: fluorofolin 50 μg/mL, 0.3 mM thymidine
Procedure: Where listed, growth media were prepared according manufacturer recommendations: LB broth and LB broth supplemented with 0.3 mM thymine (BD Biosciences 244610, Alfa Aesar A15879), 0.3 mM methionine (Sigma-Aldrich M9625), 0.3 mM inosine (EMD Millipore 4060), cation-adjusted Mueller–Hinton II broth (CAMHB) (BD 212322) or 0.3 mM thymidine (Sigma-Aldrich T1895), Gutnick minimal media (1.0 g l^−1 K2SO4, 13.5 g l^−1 K2HPO4, 4.7 g l^−1 KH2PO4, 0.1 g l^−1 MgSO4·7H2O, 10 mM NH4Cl as a nitrogen source and 0.4% w/v glucose as a carbon source)[65].
Extended Data Fig. 3 TMI supplementation can also rescue other species from fluorofolin DHFR inhibition. […] (f) P. aeruginosa PA14 or E. coli lptd4213 treated with fluorofolin 50 μg/mL in the presence or absence of 0.3 mM thymidine. (g) E. coli lptd4213 treated with fluorofolin 50 μg/mL and SMX (78.1 μg/mL) in the presence or absence of 0.3 mM thymidine or 0.3 mM TMI supplementation, Curves represent average optical at 600 nm (OD600) of 2 biological replicates. Means are shown. Source data

## Nc1nc(N)c2c(ccc3c2ccn3Cc2ccnc(F)c2)n1 [fluorofolin]
[1]
  MIC: > 100 µg/mL
[2]; Pseudomonas aeruginosa, PA14
  MIC: 3.1 µg/mL
[2]; Pseudomonas aeruginosa, PA14, 16 h
  MIC: 3.12 µg/mL
[2]; Wildtype PA14, control for each drug stock
  MIC: 3.1 µg/mL
[3]
  MIC: 1.5 µg/mL
[4]
  MIC: 1.5 µg/mL
[5]
  MIC: 1.5 µg/mL
[6]
  MIC: 0.03 µg/mL (≈ 0.0973 µM)
[7]
  MIC: 6.25 µg/mL
E. coli lptD4213
  rescue of growth inhibition by thymidine supplementation alone: Rescue from fluorofolin inhibition was also shown
